Laboratory results reported in PubChem BioAssay (NCI).
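Five compound concentrations were applied to cells in 96-well plates for 48 hours; endpoints were derived by simple linear interpolation of the resulting dose-response curve. The concentration for 50% growth inhibition is given as GI50. The concentration for full growth arrest is given as TGI.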

Legend:
Assay in all cases: DTP human tumour cell line panel, 48 h
U251 CNS = test system: U251 CNS
UACC-62 melanoma = test system: UACC-62 melanoma
NCI-H522 lung = test system: NCI-H522 lung
IGROV1 ovarian = test system: IGROV1 ovarian
SK-MEL-2 melanoma = test system: SK-MEL-2 melanoma
OVCAR-5 ovarian = test system: OVCAR-5 ovarian
CAKI-1 renal = test system: CAKI-1 renal
SW-620 colon = test system: SW-620 colon
A498 renal = test system: A498 renal
K-562 leukemia = test system: K-562 leukemia
MDA-MB-435 = test system: MDA-MB-435
MDA-MB-468 breast = test system: MDA-MB-468 breast
NCI-H226 lung = test system: NCI-H226 lung
HCT-15 colon = test system: HCT-15 colon
HCC-2998 colon = test system: HCC-2998 colon
DU-145 prostate = test system: DU-145 prostate
SN12C renal = test system: SN12C renal
MDA-MB-231 breast = test system: MDA-MB-231 breast
CCRF-CEM leukemia = test system: CCRF-CEM leukemia
RXF 393 renal = test system: RXF 393 renal
PC-3 prostate = test system: PC-3 prostate
SNB-75 CNS = test system: SNB-75 CNS
TK-10 renal = test system: TK-10 renal
OVCAR-3 ovarian = test system: OVCAR-3 ovarian
SF-539 CNS = test system: SF-539 CNS
NCI-H460 lung = test system: NCI-H460 lung
OVCAR-8 ovarian = test system: OVCAR-8 ovarian
SK-MEL-5 melanoma = test system: SK-MEL-5 melanoma
UO-31 renal = test system: UO-31 renal

With COc1ccc(NC(=O)N/N=C/c2c[nH]c3ccccc23)cc1 as the compound, how does the GI50 (U251 CNS) read?
The GI50 was 0.431 µM.

And the TGI (U251 CNS)?
The TGI was > 89.1 µM.

What about the GI50 (UACC-62 melanoma) of the same compound?
The GI50 was 0.364 µM.

What about the TGI (UACC-62 melanoma) of the same compound?
Its TGI is > 47.3 µM.

And the GI50 (NCI-H522 lung)?
Its GI50 is 0.249 µM.

What about the TGI (NCI-H522 lung) of the same compound?
The TGI was 0.879 µM.

What about the GI50 (IGROV1 ovarian) of the same compound?
The GI50 was 0.646 µM.

What about the TGI (IGROV1 ovarian) of the same compound?
Its TGI is > 100 µM.

What about the GI50 (SK-MEL-2 melanoma) of the same compound?
The GI50 was 0.294 µM.

And the TGI (SK-MEL-2 melanoma)?
The TGI was 28.8 µM.

And the GI50 (OVCAR-5 ovarian)?
Its GI50 is 2 µM.

And the TGI (OVCAR-5 ovarian)?
The TGI was > 83.7 µM.

And the GI50 (CAKI-1 renal)?
Its GI50 is 0.678 µM.

And the TGI (CAKI-1 renal)?
Its TGI is > 100 µM.

What about the GI50 (SW-620 colon) of the same compound?
The GI50 was 0.517 µM.

And the TGI (SW-620 colon)?
The TGI was > 100 µM.

And the GI50 (A498 renal)?
The GI50 was > 40.7 µM.

And the TGI (A498 renal)?
Its TGI is > 88.3 µM.

What about the GI50 (K-562 leukemia) of the same compound?
The GI50 was 0.235 µM.

What about the TGI (K-562 leukemia) of the same compound?
The TGI was > 77.1 µM.

What about the GI50 (MDA-MB-435) of the same compound?
Its GI50 is 0.255 µM.

And the TGI (MDA-MB-435)?
Its TGI is 1.89 µM.

And the GI50 (MDA-MB-468 breast)?
Its GI50 is 0.911 µM.

And the TGI (MDA-MB-468 breast)?
Its TGI is 4.4 µM.

What about the GI50 (NCI-H226 lung) of the same compound?
The GI50 was 11 µM.

What about the TGI (NCI-H226 lung) of the same compound?
The TGI was > 100 µM.

What about the GI50 (HCT-15 colon) of the same compound?
Its GI50 is 0.384 µM.

And the TGI (HCT-15 colon)?
The TGI was > 52.7 µM.

And the GI50 (HCC-2998 colon)?
Its GI50 is 1.91 µM.

What about the TGI (HCC-2998 colon) of the same compound?
Its TGI is 24.1 µM.

And the GI50 (DU-145 prostate)?
Its GI50 is 2.05 µM.

And the TGI (DU-145 prostate)?
Its TGI is > 64.1 µM.

What about the GI50 (SN12C renal) of the same compound?
Its GI50 is 1.03 µM.

And the TGI (SN12C renal)?
The TGI was > 56.7 µM.

What about the GI50 (MDA-MB-231 breast) of the same compound?
The GI50 was 1.01 µM.

And the TGI (MDA-MB-231 breast)?
Its TGI is 56 µM.

What about the GI50 (CCRF-CEM leukemia) of the same compound?
The GI50 was 0.379 µM.

And the TGI (CCRF-CEM leukemia)?
Its TGI is 17.6 µM.

And the GI50 (RXF 393 renal)?
Its GI50 is 1 µM.

What about the TGI (RXF 393 renal) of the same compound?
Its TGI is 11.3 µM.

And the GI50 (PC-3 prostate)?
The GI50 was 1.65 µM.

And the TGI (PC-3 prostate)?
Its TGI is > 100 µM.

And the GI50 (SNB-75 CNS)?
Its GI50 is 1.41 µM.

What about the TGI (SNB-75 CNS) of the same compound?
The TGI was 12.1 µM.

And the GI50 (TK-10 renal)?
Its GI50 is 7.83 µM.

What about the TGI (TK-10 renal) of the same compound?
Its TGI is 98.2 µM.

And the GI50 (OVCAR-3 ovarian)?
The GI50 was 0.38 µM.

What about the TGI (OVCAR-3 ovarian) of the same compound?
The TGI was 2.81 µM.

What about the GI50 (SF-539 CNS) of the same compound?
Its GI50 is 0.391 µM.

What about the TGI (SF-539 CNS) of the same compound?
Its TGI is 2.2 µM.

What about the GI50 (NCI-H460 lung) of the same compound?
Its GI50 is 0.579 µM.

And the TGI (NCI-H460 lung)?
Its TGI is 26.3 µM.

What about the GI50 (OVCAR-8 ovarian) of the same compound?
The GI50 was 0.801 µM.

What about the TGI (OVCAR-8 ovarian) of the same compound?
The TGI was 24.6 µM.

And the GI50 (SK-MEL-5 melanoma)?
Its GI50 is 0.524 µM.

And the TGI (SK-MEL-5 melanoma)?
Its TGI is 5.18 µM.

What about the GI50 (UO-31 renal) of the same compound?
Its GI50 is 1.87 µM.

And the TGI (UO-31 renal)?
Its TGI is > 100 µM.
